In the NIST ThermoML archive (doi:10.1016/j.jct.2016.09.022):

How the values were obtained:
[1] = refractive index (Na D-line) (dimensionless); settings: 298.15 K; 101.33 kPa; Liquid; Standard Abbe refractometry
[2] = Liquid; for speed of sound: Frequency=1.5 MHz, Single path-length method

Cc1ccccc1 [toluene]
Settings	refractive index
[1]	1.494

speed of sound [m/s], [2]
Settings	283.15 K	293.15 K	303.15 K	313.15 K	323.15 K	333.15 K	343.15 K
100 kPa	1369.5	1327.9	1284.1	1241.9	1200.2	1156.6	1118
5100 kPa	1395.4	1352.2	1309.8	1269	1229.2	1187.4	1149.1
10100 kPa	1418.1	1376	1334.3	1294.5	1256.4	1215.9	1178.9
20100 kPa	1460.8	1420.5	1380.9	1341	1306.4	1268.1	1234.3
30100 kPa	1500.8	1462	1424	1387	1352.7	1315.7	1283.9
40100 kPa	1538.7	1500.9	1464.7	1429.5	1396.3	1360.3	1329.5
50100 kPa	1574.4	1537.9	1503.3	1468.9	1436.9	1402.7	1371.4
60100 kPa	1608.1	1572.4	1539.6	1506.4	1474.9	1441.4	1413.5
70100 kPa	1640.3	1605.2	1572.1	1542.7	1511	1478.2	1451.5
80100 kPa	1670.9	1637	1605.2	1576.1	1545.3	1513.1	1487.6
90100 kPa	1700.3	1667.1	1638.2	1607.4	1576.7	1546.5	1522.1
95100 kPa	1714.5	1682	1653.5	1621.2	1591.2	1563	1538.7

Settings	mass density [kg/m3]
[2], 298.15 K, 101.33 kPa, Vibrating tube method	862.2

O [water]
Settings	refractive index
[1]	1.3326

speed of sound [m/s], [2]
Settings	283.15 K	293.15 K	303.15 K	313.15 K	323.15 K	333.15 K	343.15 K
100 kPa	1447.3	–	–	1528.9	–	1551	1554.8
5100 kPa	1455.9	1490.5	1517.5	1537.6	1551.5	1560.1	1565
10100 kPa	1463.8	1498.9	1525.9	1546.1	1560.2	1569.2	1574.4
20100 kPa	1479.9	1515.3	–	1563.2	1577.7	1587.1	1592.8
30100 kPa	1496.2	1531.9	1559.5	1580.3	1595	1604.8	1610.8
40100 kPa	1513.4	1548.6	1576.3	1597.1	1612.2	1622.2	1628.6
50100 kPa	–	1565.3	1593.1	1613.8	1629	1639.3	1646.1
60100 kPa	1548	1582.2	1609.8	1630.4	1645.7	1656.3	1663.9
70100 kPa	1565.4	1599.1	1626.3	1646.9	1662.3	1673.1	1681
80100 kPa	1582.7	1615.8	1642.6	1663.3	1678.3	1689.6	1697.4
90100 kPa	1600.1	1632.4	1659	1679.4	1694.9	1705.9	1714.2
95100 kPa	1608.7	1640.7	1667.3	1687.5	1702.9	1714	1723
